Assay results: patent publication US4156016A, “Indole compounds and process for their preparation” (Hoffmann-La Roche Inc., priority 1977, dated 1979)
pIC50: −log10 of the molar value. Like-named read-outs stand apart in the source and are kept apart here.

How the values were obtained:
[1] = tested on: ADP induced aggregation; assay: Inhibition of ADP-induced platelet aggregation (second wave) in human platelet-rich plasma; format: cell-based; conditions: for inhibition at 2.5 µM / inhibition at 5 µM / inhibition at 10 µM / inhibition at 20 µM / inhibition at 50 µM: Homo sapiens, Platelet, read-out: Percent Inhibition
Procedure: (§1) Venous blood was collected from human volunteers in siliconized 20 ml. […] Platelet rich plasma (PRP) was separated from the red blood cells by centrifugation at 180×g for 15 minutes at room temperature. Platelet poor plasma (PPP) was prepared by centrifuging PRP at 1000×g for 2 minutes.
(§2) Techniques established by Born et al., J. Physiol. […] PRP (1 ml.) was added to a siliconized cuvette containing a siliconized stirring bar and placed in a densitometer maintained at 37° C. and stirred at 1000 RPM. Various concentrations of test compounds were added in 50 μl of saline and incubated with PRP for 5 minutes. Aggregation was initiated by the addition of sufficient concentrations of ADP (Sigma Chemical Co.), epinephrine HCl (Parke, Davis & Co., Detroit, Michigan), or human mammary gland collagen (obtained from Roosevelt Hospital, N.Y.) to give about 60% of maximum aggregation response. The light transmission through PPP was used to determine maximum response. The percent inhibition of aggregation caused by the drug was calculated from the strip chart recordings at the point of maximum collagen response.

[2] = tested on: arachidonic acid induced diarrhea; assay: Arachidonic acid diarrhea prevention (mice); format: in vivo, Carworth Farm CF-1 male mice; conditions: Mus musculus, po
Procedure: Carworth Farm CF-1 male mice weighing 18-20 grams were administered the test compound by either the oral or intraperitoneal route one hour prior to the intraperitoneal administration of 4 mg/kg of arachidonic acid (Hoffmann-La Roche Inc.). […] The diarrhea was graded on paper towels as follows: 0=solid pellet or no bowel movement; 1=slightly soft pellet with little or no wet ring formation; 2=moderately soft pellet with definite wet ring formation; 3=soft pellet with large wet ring formation; and 4=amorphous pellet with very large wet ring formation.
The calculation of the ED50 was made according to the method of Miller et al., Proc. Soc.

[3] = tested on: Epinephrine induced aggregation; assay: Inhibition of epinephrine-induced platelet aggregation (second wave) in human platelet-rich plasma; format: cell-based; conditions: for inhibition at 10 µM / inhibition at 20 µM / inhibition at 25 µM / inhibition at 50 µM / inhibition at 100 µM: Homo sapiens, Platelet, read-out: Percent Inhibition
Procedure: as §1, §2

[4] = tested on: human blood-platelet aggregation; assay: Inhibition of human blood-platelet aggregation (general statement)
[5] = tested on: Collagen-Induced Platelet Aggregation; assay: Effect of compounds in whole blood: collagen-induced platelet aggregation after incubation in whole blood; format: cell-based, human; conditions: for Δ light transmission: mean of duplicate determinations; for inhibition at 1 µM / inhibition at 5 µM / inhibition at 10 µM / inhibition at 25 µM / inhibition at 50 µM / inhibition at 100 µM: read-out: percent inhibition
Procedure: Aliquots of citrated human blood (10 ml.) were exposed to different concentrations of the "nitrile" by mechanically shaking at room temperature for 5 minutes.

[6] = incubation in human citrated platelet-rich plasma

SMILES: N#Cc1[nH]c2ccc(C(O)(C(F)(F)F)C(F)(F)F)cc2c1-c1ccccc1 [nitrile, 3-Phenyl-5-[2,2,2-trifluoro-1-hydroxy-1-(trifluoromethyl)ethyl]indole-2-carbonitrile]
- Δ light transmission ([1]; 2.5 μM, Expt. I): 60 units
- Δ light transmission ([1]; 2.5 μM, Expt. II): 54 units
- Δ light transmission ([1]; 5 μM, Expt. I): 50 units
- Δ light transmission ([1]; 5 μM, Expt. II): 44 units
- Δ light transmission ([1]; 10 μM, Expt. I): 11 units
- Δ light transmission ([1]; 10 μM, Expt. II): 14 units
- Δ light transmission ([1]; 20 μM, Expt. I): 0 units
- Δ light transmission ([1]; 20 μM, Expt. II): 0 units
- Δ light transmission ([1]; 50 μM, Expt. I): 0 units
- Δ light transmission ([1]; 50 μM, Expt. II): 0 units
- inhibition at 2.5 µM ([1]; 2.5 μM, Expt. I): 0%
- inhibition at 2.5 µM ([1]; 2.5 μM, Expt. II): 1.8%
- inhibition at 5 µM ([1]; 5 μM, Expt. I): 16.7%
- inhibition at 5 µM ([1]; 5 μM, Expt. II): 20%
- inhibition at 10 µM ([1]; 10 μM, Expt. I): 18.6%
- inhibition at 10 µM ([1]; 10 μM, Expt. II): 74.5%
- inhibition at 20 µM ([1]; 20 μM, Expt. I): 100%
- inhibition at 20 µM ([1]; 20 μM, Expt. II): 100%
- inhibition at 50 µM ([1]; 50 μM, Expt. I): 100%
- inhibition at 50 µM ([1]; 50 μM, Expt. II): 100%
- pIC50 [1, 6]: 5.15
- ED50 [2]: 5 mg/kg
- Δ light transmission ([3]; 10 μM, Expt. I): 45 units
- Δ light transmission ([3]; 10 μM, Expt. II): 47 units
- Δ light transmission ([3]; 20 μM, Expt. I): 30 units
- Δ light transmission ([3]; 20 μM, Expt. II): 34 units
- Δ light transmission ([3]; 25 μM, Expt. I): 25 units
- Δ light transmission ([3]; 25 μM, Expt. II): 30 units
- Δ light transmission ([3]; 50 μM, Expt. I): 18 units
- Δ light transmission ([3]; 50 μM, Expt. II): 14 units
- Δ light transmission ([3]; 100 μM, Expt. I): 11 units
- Δ light transmission ([3]; 100 μM, Expt. II): 9 units
- inhibition at 10 µM ([3]; 10 μM, Expt. I): 0%
- inhibition at 10 µM ([3]; 10 μM, Expt. II): 6%
- inhibition at 20 µM ([3]; 20 μM, Expt. I): 33.3%
- inhibition at 20 µM ([3]; 20 μM, Expt. II): 32%
- inhibition at 25 µM ([3]; 25 μM, Expt. I): 44.4%
- inhibition at 25 µM ([3]; 25 μM, Expt. II): 40%
- inhibition at 50 µM ([3]; 50 μM, Expt. I): 60%
- inhibition at 50 µM ([3]; 50 μM, Expt. II): 71%
- inhibition at 100 µM ([3]; 100 μM, Expt. I): 75%
- inhibition at 100 µM ([3]; 100 μM, Expt. II): 82%
- pIC50 [3, 6]: 4.40
- inhibition of human blood-platelet aggregation (in words) [4]: inhibit prostaglandin formation and human blood-platelet aggregation
- Δ light transmission ([5]; 1 μM, Expt. I): 18 units
- Δ light transmission ([5]; 1 μM, Expt. II): 19 units
- Δ light transmission ([5]; 1 μM, Expt. III): 27 units
- Δ light transmission ([5]; 5 μM, Expt. I): 14 units
- Δ light transmission ([5]; 5 μM, Expt. II): 15 units
- Δ light transmission ([5]; 5 μM, Expt. III): 20 units
- Δ light transmission ([5]; 10 μM, Expt. I): 13 units
- Δ light transmission ([5]; 10 μM, Expt. II): 13 units
- Δ light transmission ([5]; 10 μM, Expt. III): 17 units
- Δ light transmission ([5]; 25 μM, Expt. I): 9 units
- Δ light transmission ([5]; 25 μM, Expt. II): 10 units
- Δ light transmission ([5]; 25 μM, Expt. III): 13 units
- Δ light transmission ([5]; 50 μM, Expt. I): 8 units
- Δ light transmission ([5]; 50 μM, Expt. II): 9 units
- Δ light transmission ([5]; 50 μM, Expt. III): 10 units
- Δ light transmission ([5]; 100 μM, Expt. I): 4 units
- Δ light transmission ([5]; 100 μM, Expt. II): 4 units
- Δ light transmission ([5]; 100 μM, Expt. III): 6 units
- inhibition at 1 µM ([5]; Homo sapiens, Platelet, 1 μM, Expt. I): 10%
- inhibition at 1 µM ([5]; Homo sapiens, Platelet, 1 μM, Expt. II): 9.5%
- inhibition at 1 µM ([5]; Homo sapiens, Platelet, 1 μM, Expt. III): 10%
- inhibition at 5 µM ([5]; Homo sapiens, Platelet, 5 μM, Expt. I): 30%
- inhibition at 5 µM ([5]; Homo sapiens, Platelet, 5 μM, Expt. II): 29%
- inhibition at 5 µM ([5]; Homo sapiens, Platelet, 5 μM, Expt. III): 33%
- inhibition at 10 µM ([5]; Homo sapiens, Platelet, 10 μM, Expt. I): 35%
- inhibition at 10 µM ([5]; Homo sapiens, Platelet, 10 μM, Expt. II): 38%
- inhibition at 10 µM ([5]; Homo sapiens, Platelet, 10 μM, Expt. III): 43%
- inhibition at 25 µM ([5]; Homo sapiens, Platelet, 25 μM, Expt. I): 55%
- inhibition at 25 µM ([5]; Homo sapiens, Platelet, 25 μM, Expt. II): 52%
- inhibition at 25 µM ([5]; Homo sapiens, Platelet, 25 μM, Expt. III): 57%
- inhibition at 50 µM ([5]; Homo sapiens, Platelet, 50 μM, Expt. I): 60%
- inhibition at 50 µM ([5]; Homo sapiens, Platelet, 50 μM, Expt. II): 57%
- inhibition at 50 µM ([5]; Homo sapiens, Platelet, 50 μM, Expt. III): 67%
- inhibition at 100 µM ([5]; Homo sapiens, Platelet, 100 μM, Expt. I): 80%
- inhibition at 100 µM ([5]; Homo sapiens, Platelet, 100 μM, Expt. II): 81%
- inhibition at 100 µM ([5]; Homo sapiens, Platelet, 100 μM, Expt. III): 80%
- pIC50 ([5]; Homo sapiens, Platelet, incubation in whole blood): 4.60
